The values below come from patent US20150368617A1, “METHOD FOR FORMING ENDOTHELIAL CELLS” (Korea Advanced Institute of Science and Technology (KAIST), priority 2012, published 2015).

In assay [1] the test system is Flk1+ MPCs. The assay can be described thus: Differentiation of MCs from Flk1+ MPCs, FACS of αSMA+ MCs. In kind it is cell-based, mouse. The following applies: Y27632 10 μM; ML7 5 μM. Here is the method:
FIGS. 11A-11D. ROCK suppression promotes the differentiation of ECs through PTEN-Akt signaling and inhibits the differentiation of MCs through MyPT-MLC signaling. (FIG. 11A) Representative FACS analysis of CD31+/CD144+ ECs incubated with 0.1% DMSO or LY294002 (20┌ M; LY) in the presence of PBS (Control) or Y27632 (10┌ M; Y). (FIG. 11B) % of CD31+/CD144+ EC population. Each group, n=3. *p<0.01 versus 0. Each group, n=3. *p<0.01 versus DMSO; ^#p<0.01 versus Y27632. (FIG. 11C) Representative FACS analysis of ┌ SMA+MCs or CD144+ ECs incubated with 0.1% DMSO or ML7 (5 ┌ M) in the presence of PBS (Control) or Y27632 (10┌ M). (FIG. 11D) % of ┌ SMA+MC population. Each group, n=3. *p<0.01 versus 0. Each group, n=3. *p<0.01 versus DMSO. n.s. represents statistically non-significant.
Analysis and sorting for CMs were performed at day 10.5. We harvested differentiated Flk1+ MPCs on OP9 cells with 0.25% trypsin-EDTA or dissociation buffer (Invitrogen). Cardiac troponin-T (cTnT)+ and ┌ smooth muscle actin (SMA)+ cells were analyzed after permeabilization using Cytofix/Cytoperm solution (BD Biosciences) for 15 min. After permeabilization, the cells were incubated for 30 min with anti-mouse cTnT (NeoMarkers) monoclonal antibody. […] Data were analyzed using FlowJo Version 7.5.4 software (TreeStar).

For assay [2], the system named is Flk1+ MPCs. Briefly: Differentiation and expansion of ECs from Flk1+ MPCs in feeder cell-free 2D Matrigel system, FACS of CD31+/CD144+ ECs. The note with it: for EC population: other ROCK inhibitors. In kind it is cell-based, mouse. Here is the method:
E14tg2a ESC cell line was a generous gift from Dr. Jun K. Yamashita (Kyoto University), and R1 ESC cell line was purchased from American Type Cell Culture. Mouse iPSC derived from FVB strain was a generous gift from Drs. Hyun-Jai Cho and Hyo-Soo Kim (Seoul National University Hospital). To obtain Flk1+ MPCs, ESCs and iPSCs were cultured on 0.1% gelatin-coated plates at a density of 1-2×10^3 cells/cm^2 in differentiation medium [┌−minimal essential medium (Invitrogen) supplemented with 10% fetal bovine serum (FBS)] without leukemia inhibitory factor (LIF). At day 4.5, the Flk1+ MPCs were purified by AutoMACS™Pro Separator (Miltenyi Biotec) with biotin-conjugated anti-mouse Flk1 antibody (clone AVAS12a1, eBioscience) and streptavidin MicroBeads (Miltenyi Biotec). The Flk1+MPCs were then subsequently plated onto Matrigel (BD Biosciences)-coated plates at a density of 1˜2×10^4 cells/cm^2, and were cultured in differentiation medium supplemented with VEGF-A165 (50 ng/ml, Peprotech). To purify the ECs from the differentiating Flk1+ cells, the cells were first dissociated and resuspended in HBSS/2% FBS, and were serially incubated with anti-mouse ICAM2 antibody (rat monoclonal, clone 3C4, Biolegend) for 10 min and with anti-rat IgG Microbead (Miltenyi Biotec) for 15 min. […] VEGF-Trap was prepared as previously described. Various signaling inhibitors and activators including SB203580, PD98059, KT5720, Go6976, KT5823, LY294002, rapamycin, Y27632, SB431542, Rho-kinase inhibitor (RKI; H-1152, isoquinolinesulfonamide), and Rho-kinase inhibitor II (RKI-II; pyridyl urea) were purchased from Calbiochem and Sigma-Aldrich.
Cells were harvested with 0.25% trypsin-EDTA (Invitrogen) or dissociation buffer (Invitrogen) and resuspended in HBSS/2% FBS at 1×10^6 cells per 100┌ l. The cells were incubated for 20 min with the following antibodies: biotin-conjugated anti-mouse Flk1 (clone AVAS12a1, eBioscience), allophycocyanin (APC)-conjugated anti-mouse CD140a (clone APA5, eBioscience), phycoerythrin(PE)-conjugated anti-mouse CD31 (clone 390, eBioscience), Alexa Fluor® 647-conjugated anti-mouse CD144 (clone BV13, eBioscience), PE-conjugated anti-mouse D114 (clone HMD4-1, Biolegend), PE-conjugated anti-mouse Tie2 (clone TEK4, eBioscience), PE-conjugated anti-mouse Endoglin (clone MJ7/18, Biolegend), anti-mouse ICAM2 (clone 3C4, Biolegend), APC-conjugated anti-mouse CD140b (clone APBS, eBioscience), PE-conjugated anti-mouse LYVE1 (clone ALY7, eBioscience), anti-mouse VEGFR3 (goat polyclonal, R&D systems), anti-mouse EphB4 (clone VEB4-7E4, Hycult biotech), and PE-conjugated anti-mouse Notch1 (clone HMN1-12, Biolegend). After washing in HBSS/2% FBS twice, the cells were incubated with the following secondary antibodies: PE-conjugated streptavidin (eBioscience), PE-conjugated anti-rat IgG2a (eBioscience), and FITC-conjugated anti-goat IgG (Invitrogen). Dead cells were excluded by 7-aminoactinomycin D (7-AAD, Invitrogen).
Flk1+ MPCs derived from mouse ESCs are capable of differentiating into ECs, hematopoietic cells, mural cells (MCs), and cardiomyocytes. To avoid cell contamination from using feeder cells for differentiation of Flk1+ MPCs, we have established a feeder cell-free 2D Matrigel system (FIG. 1A). Flk1+ MPCs were differentiated from E14tg2a ESC cell line, and when the Flk1+ MPCs were purified at day 4.5 and cultured on Matrigel-coated plates in the differentiation medium, colonies of CD144+ ECs surrounded by ┌ SMA+MCs were formed (FIG. 1B). At day 6.5, population of CD144+/CD31+ ECs grown in differentiation medium was ˜4%, whereas the same EC population was increased up to ˜20% when VEGF-A (50 ng/ml) was supplemented (FIG. 1C). For following experiments, we chose to use 50 ng/ml of VEGF-A (hereafter referred to as VEGF-A) based on its maximal effect on differentiation and expansion of ECs from Flk1+ MPCs.

Regarding `O=S(=O)(c1cccc2c(I)cccc12)N1CCCNCC1` [ML7], in assay [1], the “reduction of αSMA+MC population” value is on record as around 31%.
For “VEGF-Trap: blocks the action of VEGF-A; prepared as previously described”, in assay [2] (pretreatment of VEGF-Trap (5 μg/ml) during differentiation), the “ROCK suppression-induced expansion of ECs” value is reported as “totally abolished”.
On to `O=c1cc(N2CCOCC2)oc2c(-c3ccccc3)cccc12` [LY294002], for which the “ROCK suppression-induced differentiation and expansion of ECs” value in assay [2] (LY294002 20 μM with Y27632 under VEGF-A stimulus) is on record as “almost completely suppressed”. Moreover, the “CD31+/CD144+ EC population” value in assay [2] (inhibitor treated with VEGF-A, day 6.5) is “strongly reduced”.
As to `O=C(Nc1ccncc1)Nc1c(Cl)cc(Cl)cc1Cl` [RKI-II], the EC population result in assay [2] is reported as “similarly increased”.
Turning to `Cc1cncc2cccc(S(=O)(=O)N3CCCNC[C@@H]3C)c12` [RKI], the EC population result in assay [2] is listed as “similarly increased”.
